Broadly, the IC95 is the concentration needed for an effect of 95%.

The test has as its system acute HIV infection of T-lymphoid cells. In words: Assay for inhibition of HIV replication (spread assay). The format is cell-based. The settings on record: Human immunodeficiency virus 1; inhibition of acute HIV infection of T-lymphoid cells; read-out: IC95, spread assay. As for the experimental part: An assay for the inhibition of acute HIV infection of T-lymphoid cells (alternatively referred to herein as the “spread assay”) was conducted in accordance with Vacca, J. P. et al., Proc. Natl. Acad. Sci. USA 1994, 91: 4096. […] The compounds set forth in the other Examples were not tested in the spread assay.
Turning to `O=C(COCc1ccccc1)Nc1[nH]c2ccc(Cl)cc2c1S(=O)(=O)c1ccccc1` [Example 6, 2-(benzyloxy)-N-[5-chloro-3-(phenylsulfonyl)-1H-indol-2-yl]acetamide], the IC95 was < 1000 nM.

With `CCC(=O)Nc1[nH]c2ccc(Cl)cc2c1S(=O)(=O)c1ccccc1` [Example 7, N-[5-chloro-3-(phenylsulfonyl)-1H-indol-2-yl]propanamide], the IC95 was < 1000 nM.

On to `O=C(Nc1[nH]c2ccc(Cl)cc2c1S(=O)(=O)c1ccccc1)C1CCC1` [Example 9, N-[5-chloro-3-(phenylsulfonyl)-1H-indol-2-yl]cyclobutanecarboxamide], for which the IC95 was < 1000 nM.

As to `O=C(CNC1CC1)Nc1[nH]c2ccc(Cl)cc2c1S(=O)(=O)c1ccccc1` [Example 12, N^1-[5-chloro-3-(phenylsulfonyl)-1H-indol-2-yl]-N^2-cyclopropylglycinamide], the concentration for an effect of 95% (IC95) was < 1000 nM.

As to `O=C(Cc1ccc(F)cc1)Nc1[nH]c2ccc(Cl)cc2c1S(=O)(=O)c1ccccc1` [Example 16, N-[5-chloro-3-(phenylsulfonyl)-1H-indol-2-yl]-2-(4-fluorophenyl)acetamide], the IC95 was < 1000 nM.

In the case of `O=C(CN1CCCC(F)(F)C1)Nc1[nH]c2ccc(Cl)cc2c1S(=O)(=O)c1ccccc1` [Example 17, N-[5-chloro-3-(phenylsulfonyl)-1H-indol-2-yl]-2-(3,3-difluoropiperidin-1-yl)acetamide], the IC95 was < 1000 nM.

Regarding `O=C(Nc1[nH]c2ccc(Cl)cc2c1S(=O)(=O)c1ccccc1)c1ccc(F)cc1F` [Example 18, N-[5-chloro-3-(phenylsulfonyl)-1H-indol-2-yl]-2,4-difluorobenzamide], the IC95 is < 1000 nM.

In the case of `O=C(Nc1[nH]c2ccc(Cl)cc2c1S(=O)(=O)c1ccccc1)c1ccccc1F` [Example 19, N-[5-chloro-3-(phenylsulfonyl)-1H-indol-2-yl]-2-fluorobenzamide], the IC95 was < 1000 nM.

Turning to `O=C(Nc1[nH]c2ccc(Cl)cc2c1S(=O)(=O)c1ccccc1)c1ccncc1` [Example 20, N-[5-chloro-3-(phenylsulfonyl)-1H-indol-2-yl]isonicotinamide], the IC95 was < 1000 nM.

With `Cc1ccoc1C(=O)Nc1[nH]c2ccc(Cl)cc2c1S(=O)(=O)c1ccccc1` [Example 24, N-[5-chloro-3-(phenylsulfonyl)-1H-indol-2-yl]-3-methyl-2-furamide], the IC95 is < 1000 nM.

For the compound `O=C(Nc1[nH]c2ccc(Cl)cc2c1S(=O)(=O)c1ccccc1)c1cccc(F)c1` [Example 25, N-[5-chloro-3-(phenylsulfonyl)-1H-indol-2-yl]-3-fluorobenzamide], the IC95 is < 1000 nM.

In the case of `CCOC(=O)CNC(=O)Nc1[nH]c2ccc(Cl)cc2c1S(=O)(=O)c1ccccc1` [Example 27, ethyl N-({[5-chloro-3-(phenylsulfonyl)-1H-indol-2-yl]amino}carbonyl)glycinate], the IC95 is < 1000 nM.

As to `O=C(Nc1[nH]c2ccc(Cl)cc2c1S(=O)(=O)c1ccccc1)c1ccccc1` [Example 28, N-[5-chloro-3-(phenylsulfonyl)-1H-indol-2-yl]benzamide], the IC95 was < 1000 nM.

For the compound `O=C(Nc1cccc(F)c1)Nc1[nH]c2ccc(Cl)cc2c1S(=O)(=O)c1ccccc1` [Example 29, N-[5-chloro-3-(phenylsulfonyl)-1H-indol-2-yl]-N′-(3-fluorophenyl)urea], the IC95 was < 1000 nM.

For `COCC(=O)Nc1[nH]c2ccc(Cl)cc2c1S(=O)(=O)c1ccccc1` [Example 34, N-[5-chloro-3-(phenylsulfonyl)-1H-indol-2-yl]-2-methoxyacetamide], the IC95 is < 1000 nM.

Turning to `O=C(Nc1ccccc1)Nc1[nH]c2ccc(Cl)cc2c1S(=O)(=O)c1ccccc1` [Example 35, N-[5-chloro-3-(phenylsulfonyl)-1H-indol-2-yl]-N′-phenylurea], the 95% effect concentration (IC95) was < 1000 nM.

Consider `O=C(Nc1ccccc1C(F)(F)F)Nc1[nH]c2ccc(Cl)cc2c1S(=O)(=O)c1ccccc1` [Example 41, N-[5-chloro-3-(phenylsulfonyl)-1H-indol-2-yl]-N′-[2-(trifluoromethyl)phenyl]urea], for which the IC95 was < 1000 nM.

`Cn1ccnc1CNCC(=O)Nc1[nH]c2ccc(Cl)cc2c1S(=O)(=O)c1ccccc1` [Example 42, N^1-[5-chloro-3-(phenylsulfonyl)-1H-indol-2-yl]-N^2-[(1-methyl-1H-imidazol-2-yl)methyl]glycinamide]: the IC95 was < 1000 nM.

For the compound `Cc1cccc(CNC(=O)Nc2[nH]c3ccc(Cl)cc3c2S(=O)(=O)c2ccccc2)c1` [Example 43, N-[5-chloro-3-(phenylsulfonyl)-1H-indol-2-yl]-N′-(3-methylbenzyl)urea], the IC95 is < 1000 nM.

As for `O=C(Nc1[nH]c2ccc(Cl)cc2c1S(=O)(=O)c1ccccc1)NC1CCCC1` [Example 44, N-[5-chloro-3-(phenylsulfonyl)-1H-indol-2-yl]-N′-cyclopentylurea], the IC95 was < 1000 nM.

`CC1(CNCC(=O)Nc2[nH]c3ccc(Cl)cc3c2S(=O)(=O)c2ccccc2)COC1` [Example 45, N^1-[5-chloro-3-(phenylsulfonyl)-1H-indol-2-yl]-N^2-[(3-methyloxetan-3-yl)methyl]glycinamide]: the 95% effect concentration (IC95) was < 1000 nM.

On to `CCC(C)NC(=O)Nc1[nH]c2ccc(Cl)cc2c1S(=O)(=O)c1ccccc1` (stereo not shown) [Example 46, N-(sec-butyl)-N′-[5-chloro-3-(phenylsulfonyl)-1H-indol-2-yl]urea], for which the IC95 is < 1000 nM.

`O=C(Nc1[nH]c2ccc(Cl)cc2c1S(=O)(=O)c1ccccc1)C1CCCC1` [Example 47, N-[5-chloro-3-(phenylsulfonyl)-1H-indol-2-yl]cyclopentanecarboxamide]: the IC95 is < 1000 nM.

Turning to `CCCCNC(=O)Nc1[nH]c2ccc(Cl)cc2c1S(=O)(=O)c1ccccc1` [Example 48, N-butyl-N′-[5-chloro-3-(phenylsulfonyl)-1H-indol-2-yl]urea], the concentration for an effect of 95% (IC95) was < 1000 nM.

On to `O=C(NCCc1ccccc1)Nc1[nH]c2ccc(Cl)cc2c1S(=O)(=O)c1ccccc1` [Example 49, N-[5-chloro-3-(phenylsulfonyl)-1H-indol-2-yl]-N′-(2-phenylethyl)urea], for which the IC95 was 1000 to 10000 nM.

Take `O=C(NCc1cccc(F)c1)Nc1[nH]c2ccc(Cl)cc2c1S(=O)(=O)c1ccccc1` [Example 50, N-[5-chloro-3-(phenylsulfonyl)-1H-indol-2-yl]-N′-(3-fluorobenzyl)urea]: the IC95 was < 1000 nM.

Take `COc1cccc(CNCC(=O)Nc2[nH]c3ccc(Cl)cc3c2S(=O)(=O)c2ccccc2)c1` [Example 51, N^1-[5-chloro-3-(phenylsulfonyl)-1H-indol-2-yl]-N^2-(3-methoxybenzyl)glycinamide]: the IC95 was < 1000 nM.

Turning to `O=C(NCc1ccc(F)cc1)Nc1[nH]c2ccc(Cl)cc2c1S(=O)(=O)c1ccccc1` [Example 52, N-[5-chloro-3-(phenylsulfonyl)-1H-indol-2-yl]-N′-(4-fluorobenzyl)urea], the 95% effect concentration (IC95) was < 1000 nM.

As to `CS(=O)(=O)N1CCN(CC(=O)Nc2[nH]c3ccc(Cl)cc3c2S(=O)(=O)c2ccccc2)CC1` [Example 53, N-[5-chloro-3-(phenylsulfonyl)-1H-indol-2-yl]-2-[4-(methylsulfonyl)piperazin-1-yl]acetamide], the concentration for an effect of 95% (IC95) is < 1000 nM.

For `O=C(CN1CCC(c2ccccn2)C1)Nc1[nH]c2ccc(Cl)cc2c1S(=O)(=O)c1ccccc1` (stereo not shown) [Example 56, N-[5-chloro-3-(phenylsulfonyl)-1H-indol-2-yl]-2-(3-pyridin-2-ylpyrrolidin-1-yl)acetamide], the IC95 is < 1000 nM.

Consider `O=C(Nc1[nH]c2ccc(Cl)cc2c1S(=O)(=O)c1ccccc1)NC1CCCCC1` [Example 57, N-[5-chloro-3-(phenylsulfonyl)-1H-indol-2-yl]-N′-cyclohexylurea], for which the IC95 was < 1000 nM.

Regarding `O=C(Nc1[nH]c2ccc(Cl)cc2c1S(=O)(=O)c1ccccc1)NC1CC1c1ccccc1` (stereo not shown) [Example 58, N-[5-chloro-3-(phenylsulfonyl)-1H-indol-2-yl]-N′-(2-phenylcyclopropyl)urea], the IC95 was < 1000 nM.

`CC(NCC(=O)Nc1[nH]c2ccc(Cl)cc2c1S(=O)(=O)c1ccccc1)c1ccccc1` (stereo not shown) [Example 59, 2-{[5-chloro-3-(phenylsulfonyl)-1H-indol-2-yl]amino}-2-oxo-N-(1-phenylethyl)ethanamine]: the IC95 is < 1000 nM.

Turning to `O=C(Nc1[nH]c2ccc(Cl)cc2c1S(=O)(=O)c1ccccc1)C1CCCCC1` [Example 60, N-[5-chloro-3-(phenylsulfonyl)-1H-indol-2-yl]cyclohexanecarboxamide], the IC95 is < 1000 nM.

As for `CN1CCN(CC(=O)Nc2[nH]c3ccc(Cl)cc3c2S(=O)(=O)c2ccccc2)CC1` [Example 61, N-[5-chloro-3-(phenylsulfonyl)-1H-indol-2-yl]-2-(4-methylpiperazin-1-yl)acetamide], the IC95 is < 1000 nM.

As for `CC(C)NC(=O)Nc1[nH]c2ccc(Cl)cc2c1S(=O)(=O)c1ccccc1` [Example 62, N-[5-chloro-3-(phenylsulfonyl)-1H-indol-2-yl]-N′-isopropylurea], the IC95 is < 1000 nM.

Regarding `O=C(COc1ccccc1)Nc1[nH]c2ccc(Cl)cc2c1S(=O)(=O)c1ccccc1` [Example 65, N-[5-chloro-3-(phenylsulfonyl)-1H-indol-2-yl]-2-phenoxyacetamide], the IC95 is < 1000 nM.

As for `O=C(Nc1cc(F)cc(F)c1)Nc1[nH]c2ccc(Cl)cc2c1S(=O)(=O)c1ccccc1` [Example 66, N-[5-chloro-3-(phenylsulfonyl)-1H-indol-2-yl]-N′-(3,5-difluorophenyl)urea], the IC95 was < 1000 nM.

Take `O=C(Nc1cccc(C(F)(F)F)c1)Nc1[nH]c2ccc(Cl)cc2c1S(=O)(=O)c1ccccc1` [Example 68, N-[5-chloro-3-(phenylsulfonyl)-1H-indol-2-yl]-N′-[3-(trifluoromethyl)phenyl]urea]: the concentration for an effect of 95% (IC95) was < 1000 nM.

With `O=C(NCc1c(F)cccc1Cl)Nc1[nH]c2ccc(Br)cc2c1S(=O)(=O)N1CCCC1` [Example 95, N-[5-bromo-3-(pyrrolidin-1-ylsulfonyl)-1H-indol-2-yl]-N′-(2-chloro-6-fluorobenzyl)urea], the 95% effect concentration (IC95) was < 1000 nM.

These data come from patent publication US20100179122A1 (priority 2005, published 2010).
